“Also recorded” adds a separate entry of the source.

Format in all cases: in vivo
For one data set, the system named is Wistar albino mice. Put plainly: Analgesic activity, tail-flick technique. To be noted: for Percent analgesic activity: mean ± SD (n = 6); for Analgesic activity (in words): tail-flick, structure-activity comparison within the series / vs diclofenac sodium. How it is done: (§1) The synthesized compounds were evaluated for analgesic, anti-inflammatory, and ulcerogenic index. […] The test compounds and the standard drugs were administered in the form of a suspension (1% carboxymethyl cellulose as a vehicle) by oral route for analgesic and anti-inflammatory but for ulcerogenicity studies by intraperitoneally as suspension in 10% v/v Tween-20. Each group consisted of six animals. The animals were procured from the C. L. Baid Metha College of pharmacy, Chennai, and were maintained in colony cages at 25 ±2°C, relative humidity of 45-55%, under a 12-h light and dark cycle; they were fed standard animal feed. All the animals were acclimatized for a week before use. The Institutional Animal Ethics Committee approved the protocol adopted for the experimentation of animals.
The analgesic activity was performed by tail-flick technique using Wistar albino mice (25-35 g) of either sex selected by the random sampling technique.[1314] Diclofenac sodium at a dose level of 10 mg/kg and 20 mg/kg was administered orally as reference drug for comparison. The test compounds at two dose levels (10, 20 mg/kg) were administered orally. The reaction time was recorded at 30 min, 1, 2, and 3 h after the treatment, and cut-off time was 10 s. The percent analgesic activity (PAA) was calculated by the following formula, where T1 is the reaction time (s) before treatment, and T2 is the reaction time (s) after treatment.

Data set [1] has as its system carrageenan-induced paw edema in rats. The data set can be described thus: Anti-inflammatory activity, carrageenan-induced paw edema test. As to conditions: mean ± SD (n = 6). How it is done:
as §1
Anti-inflammatory activity was evaluated by carrageenan-induced paw edema test in rats.[15] Diclofenac sodium 10, 20 mg/kg was administered as a standard drug for comparison. The test compounds were administered at two dose levels (10 mg/kg, 20 mg/kg). The paw volumes were measured using the mercury displacement technique with the help of a plethysmograph (Model PLYAN; Buxco, USA) immediately before and 30 min, 1, 2, and 3 h after carrageenan injection. The percent inhibition of paw edema was calculated using the following formula.
Percent inhibition I = 100 1− (a−x) / (b−y)
Where x is the mean paw volume of rats before the administration of carrageenan and test compounds or reference compound (test group), a is the mean paw volume of rats after the administration of carrageenan in the test group (drug treated), b is the mean paw volume of rats after the administration of carrageenan in the control group, y is the mean paw volume of rats before the administration of carrageenan in the control group.

In data set [2] the test system is Albino rats of Wistar strain. Put plainly: Evaluation of ulcerogenicity index (pylorus ligation). Further details: scale not given here. To be noted: mean ± SD (n = 6). How it is done: The synthesized compounds were evaluated for analgesic, anti-inflammatory, and ulcerogenic index. […] The test compounds and the standard drugs were administered in the form of a suspension (1% carboxymethyl cellulose as a vehicle) by oral route for analgesic and anti-inflammatory but for ulcerogenicity studies by intraperitoneally as suspension in 10% v/v Tween-20. Each group consisted of six animals. The animals were procured from the C. L. Baid Metha College of pharmacy, Chennai, and were maintained in colony cages at 25 ±2°C, relative humidity of 45-55%, under a 12-h light and dark cycle; they were fed standard animal feed. All the animals were acclimatized for a week before use. The Institutional Animal Ethics Committee approved the protocol adopted for the experimentation of animals. Ulceration in rats was induced as described by Goyal et al. Albino rats of Wistar strain weighing 150-200 g of either sex were divided into various groups each of six animals.[16] Control group of animals was administered only with 10% v/v Tween 80 suspension intraperitonially. One group was administered with aspirin (German Remedies) intraperitoneally at a dose of 200 mg/kg once daily for 3 days. The remaining group of animals was administered with test compounds intraperitoneally at a dose of 20 mg/kg. On fourth day, Pylorus was ligated as per the method of Shay et al.[17] Animals were fasted for 36 h before the pylorus ligation procedure. Four hours after the ligation, animals were sacrificed. The stomach was removed and opened along with the greater curvature. Ulcer index was determined by the method of Ganguly and Bhatnagar.[18]

Setting [3] is: 10 mg/kg oral, 30 min after treatment.
Where [4] appears, read: 10 mg/kg oral, 1 h after treatment.
The mark [5] stands for this setting: 10 mg/kg oral, 2 h after treatment.
[6] abbreviates: 10 mg/kg oral, 3 h after treatment.
[7] abbreviates: 20 mg/kg oral, 30 min after treatment.
Setting [8] is: 20 mg/kg oral, 1 h after treatment.
[9] abbreviates: 20 mg/kg oral, 2 h after treatment.
Where [10] appears, read: 20 mg/kg oral, 3 h after treatment.
Where [11] appears, read: 10 mg/kg oral, 30 min after carrageenan.
The mark [12] stands for this setting: 10 mg/kg oral, 1 h after carrageenan.
Where [13] appears, read: 10 mg/kg oral, 2 h after carrageenan.
[14] abbreviates: 10 mg/kg oral, 3 h after carrageenan.
Where [15] appears, read: 20 mg/kg oral, 30 min after carrageenan.
The mark [16] stands for this setting: 20 mg/kg oral, 1 h after carrageenan.
Setting [17] is: 20 mg/kg oral, 2 h after carrageenan.
Setting [18] is: 20 mg/kg oral, 3 h after carrageenan.
Setting [19] is: test compounds 20 mg/kg intraperitoneally, pylorus ligated on fourth day.

For `COc1ccc(C=Nc2ccc(N=C3C(=O)Nc4ccc(F)cc43)cc2)cc1` [Compound N7], the Percent analgesic activity amounted to 34 ± 1.74 % in the data set with Wistar albino mice (setting [3]); 43 ± 1.72 % in the data set on Wistar albino mice (setting [4]); 45 ± 1.45 % with Wistar albino mice (setting [5]); 29 ± 1.69 % in the data set with Wistar albino mice (setting [6]); 47 ± 1.96 % in the data set on Wistar albino mice (setting [7]); 52 ± 1.67 % in the data set with Wistar albino mice (setting [8]). In addition, the Percent analgesic activity in the data set on Wistar albino mice (setting [9]) was determined as 56 ± 1.36 %; in the data set with Wistar albino mice (setting [10]), 44 ± 1.48 %. For the same compound, the “Analgesic activity (in words)” value in the data set on Wistar albino mice was “decreasing activity; also recorded: further decrease of activity”. Besides, the “Percent anti-inflammatory activity (percent inhibition of paw edema)” value in data set [1] (setting [11]) was found to be 36 ± 1.74 %; in data set [1] (setting [12]) it was 42 ± 1.72 %; in data set [1] (setting [13]), 45 ± 1.55 %; in data set [1] (setting [14]) it was 33 ± 1.69 %; in data set [1] (setting [15]), 44 ± 1.76 %; in data set [1] (setting [16]), 55 ± 1.78 %. Also, the “Percent anti-inflammatory activity (percent inhibition of paw edema)” value in data set [1] (setting [17]) was found to be 58 ± 1.66 %; in data set [1] (setting [18]), 41 ± 1.48 %. The compound also showed a Ulcer index in data set [2] (setting [19]) of 0.78 ± 1.19.

For `O=C(O)Cc1ccccc1Nc1c(Cl)cccc1Cl` [Diclofenac, Diclofenac sodium, reference compound], the Percent analgesic activity with Wistar albino mice (setting [3]) is 37 ± 1.69 %; in the data set on Wistar albino mice (setting [4]) it was 43 ± 1.42 %; with Wistar albino mice (setting [5]), 45 ± 0.92 %; with Wistar albino mice (setting [6]), 33 ± 0.96 %; in the data set with Wistar albino mice (setting [7]) it was 46 ± 0.95 %; with Wistar albino mice (setting [8]), 55 ± 1.16 %. Moreover, the Percent analgesic activity in the data set on Wistar albino mice (setting [9]) came to 62 ± 1.49 %; in the data set with Wistar albino mice (setting [10]), 39 ± 1.13 %. Further, the “Percent anti-inflammatory activity (percent inhibition of paw edema)” value in data set [1] (setting [11]) turned out to be 32 ± 0.69 %; in data set [1] (setting [12]), 38 ± 1.42 %; in data set [1] (setting [13]), 39 ± 1.97 %; in data set [1] (setting [14]), 33 ± 0.93 %; in data set [1] (setting [15]), 45 ± 1.65 %; in data set [1] (setting [16]), 52 ± 0.96 %. Further, the “Percent anti-inflammatory activity (percent inhibition of paw edema)” value in data set [1] (setting [17]) was 60 ± 1.52 %; in data set [1] (setting [18]) it was 39 ± 1.13 %. In data set [2] (diclofenac reference, dose not given), this compound gave a Ulcer index of 1.65 ± 0.48.

In the case of `CC(=Nc1ccc(N=C2C(=O)Nc3ccc(F)cc32)cc1)c1ccccc1` [Compound N5], the Percent analgesic activity with Wistar albino mice (setting [3]) is reported as 44 ± 1.76 %; in the data set with Wistar albino mice (setting [4]), 49 ± 1.88 %; with Wistar albino mice (setting [5]), 52 ± 1.55 %; in the data set with Wistar albino mice (setting [6]), 32 ± 1.26 %; in the data set on Wistar albino mice (setting [7]), 52 ± 1.33 %; in the data set with Wistar albino mice (setting [8]), 55 ± 1.95 %. For the same compound, the Percent analgesic activity is on record as 59 ± 1.36 % in the data set on Wistar albino mice (setting [9]) and 42 ± 1.48 % in the data set with Wistar albino mice (setting [10]). The “Analgesic activity (in words)” value in the data set on Wistar albino mice is reported as “moderate decrease in activity”. Further, the “Percent anti-inflammatory activity (percent inhibition of paw edema)” value was 39 ± 1.56 % in data set [1] (setting [11]); 46 ± 1.88 % in data set [1] (setting [12]); 52 ± 1.65 % in data set [1] (setting [13]); 32 ± 1.26 % in data set [1] (setting [14]); 45 ± 1.73 % in data set [1] (setting [15]); 54 ± 1.95 % in data set [1] (setting [16]). Further, the “Percent anti-inflammatory activity (percent inhibition of paw edema)” value is listed as 59 ± 1.36 % in data set [1] (setting [17]) and 42 ± 1.48 % in data set [1] (setting [18]). Besides, the Ulcer index in data set [2] (setting [19]) was found to be 0.82 ± 1.32.

For `CC(=O)Oc1ccccc1C(=O)O` [Aspirin, aspirin, reference compound], the Ulcer index in data set [2] (aspirin 200 mg/kg intraperitoneally once daily for 3 days, pylorus ligated on fourth day) stood at 1.73 ± 0.39; in data set [2] (aspirin 200 mg/kg intraperitoneally once daily for 3 days, pylorus ligated on fourth day, listed as aspirin), 1.73 ± 0.41.

For the compound `O=C1Nc2ccc(F)cc2C1=Nc1ccc(N=Cc2ccc(Cl)cc2)cc1` [Compound N9], the Percent analgesic activity with Wistar albino mice (setting [3]) worked out at 42 ± 1.82 %; in the data set on Wistar albino mice (setting [4]), 44 ± 1.72 %; with Wistar albino mice (setting [5]), 48 ± 1.59 %; with Wistar albino mice (setting [6]), 38 ± 1.72 %; in the data set with Wistar albino mice (setting [7]), 46 ± 1.68 %; in the data set with Wistar albino mice (setting [8]) it was 51 ± 1.46 %. The Percent analgesic activity worked out at 57 ± 1.18 % with Wistar albino mice (setting [9]) and 45 ± 1.32 % in the data set with Wistar albino mice (setting [10]). For the same compound, in the data set with Wistar albino mice, the “Analgesic activity (in words)” value is recorded as “decreasing activity”. Also, the “Percent anti-inflammatory activity (percent inhibition of paw edema)” value in data set [1] (setting [11]) amounted to 38 ± 1.82 %; in data set [1] (setting [12]), 44 ± 1.32 %; in data set [1] (setting [13]), 48 ± 1.99 %; in data set [1] (setting [14]), 38 ± 1.72 %; in data set [1] (setting [15]) it was 46 ± 1.68 %; in data set [1] (setting [16]), 51 ± 1.46 %. Also, the “Percent anti-inflammatory activity (percent inhibition of paw edema)” value is on record as 57 ± 1.18 % in data set [1] (setting [17]) and 45 ± 1.32 % in data set [1] (setting [18]). In addition, the Ulcer index in data set [2] (setting [19]) turned out to be 0.75 ± 1.26.

`CCC(C)=Nc1ccc(N=C2C(=O)Nc3ccc(F)cc32)cc1` [Compound N1]: the Percent analgesic activity was found to be 47 ± 1.25 % in the data set on Wistar albino mice (setting [3]); 51 ± 1.32 % with Wistar albino mice (setting [4]); 53 ± 1.15 % with Wistar albino mice (setting [5]); 31 ± 1.96 % with Wistar albino mice (setting [6]); 54 ± 1.36 % in the data set with Wistar albino mice (setting [7]); 58 ± 1.96 % with Wistar albino mice (setting [8]). Also, the Percent analgesic activity with Wistar albino mice (setting [9]) was 60 ± 1.16 %; in the data set with Wistar albino mice (setting [10]) it was 47 ± 1.45 %. Also, the “Percent anti-inflammatory activity (percent inhibition of paw edema)” value amounted to 39 ± 1.25 % in data set [1] (setting [11]); 45 ± 1.32 % in data set [1] (setting [12]); 52 ± 1.15 % in data set [1] (setting [13]); 32 ± 1.96 % in data set [1] (setting [14]); 44 ± 1.36 % in data set [1] (setting [15]); 52 ± 1.96 % in data set [1] (setting [16]). For the same compound, the “Percent anti-inflammatory activity (percent inhibition of paw edema)” value was 58 ± 1.32 % in data set [1] (setting [17]) and 37 ± 1.45 % in data set [1] (setting [18]). This compound also registered a Ulcer index in data set [2] (setting [19]) of 0.84 ± 1.43.
